From ChEMBL document CHEMBL1131670, “N-hydroxyurea and hydroxamic acid inhibitors of cyclooxygenase and 5-lipoxygenase” (Bioorg Med Chem Lett, 1999)
Blank lines part the entries; values can stand above or below the compound they belong to.

What was measured:
[1] = molecular target: T1, Prostaglandin G/H synthase 1 (Ovis aries) (UniProt P05979); assay: Inhibitory activity against Cyclooxygenase using sheep seminal vesicle (SSV) enzyme (COX-1) Inhibition at 10 uM; assay type: tissue-based
T1 sequence (whole entry): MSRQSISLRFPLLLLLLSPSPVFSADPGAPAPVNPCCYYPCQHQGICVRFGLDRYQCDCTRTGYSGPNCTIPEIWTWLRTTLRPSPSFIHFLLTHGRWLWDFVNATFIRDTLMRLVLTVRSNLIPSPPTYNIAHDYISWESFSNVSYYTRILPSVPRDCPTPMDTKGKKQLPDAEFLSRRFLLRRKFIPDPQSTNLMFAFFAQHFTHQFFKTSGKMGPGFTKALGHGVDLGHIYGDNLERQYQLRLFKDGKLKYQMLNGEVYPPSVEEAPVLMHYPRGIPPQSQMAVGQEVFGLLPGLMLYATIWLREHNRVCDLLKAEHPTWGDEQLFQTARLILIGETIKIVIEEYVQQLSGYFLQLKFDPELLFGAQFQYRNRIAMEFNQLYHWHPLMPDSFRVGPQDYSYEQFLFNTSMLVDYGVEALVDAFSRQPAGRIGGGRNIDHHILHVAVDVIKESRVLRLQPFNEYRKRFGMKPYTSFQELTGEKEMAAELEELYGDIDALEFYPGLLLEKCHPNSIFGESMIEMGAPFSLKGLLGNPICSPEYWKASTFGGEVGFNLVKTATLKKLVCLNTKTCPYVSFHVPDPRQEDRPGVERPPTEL

[2] = molecular target: T2, Cyclooxygenase (Rattus norvegicus) (UniProt P35355+Q63921); assay: Inhibitory activity against Cyclooxygenase (COX) using broken rat […] leukemia cells (RBL-1) at 10 uM; assay type: cell-based
[3] = molecular target: T3, Polyunsaturated fatty acid 5-lipoxygenase (Rattus norvegicus) (UniProt P12527); assay: Inhibitory activity against 5-lipoxygenase (5-LO) using broken rat […] leukemia cells (RBL-1) at 10 uM; assay type: cell-based
T3 sequence (whole entry): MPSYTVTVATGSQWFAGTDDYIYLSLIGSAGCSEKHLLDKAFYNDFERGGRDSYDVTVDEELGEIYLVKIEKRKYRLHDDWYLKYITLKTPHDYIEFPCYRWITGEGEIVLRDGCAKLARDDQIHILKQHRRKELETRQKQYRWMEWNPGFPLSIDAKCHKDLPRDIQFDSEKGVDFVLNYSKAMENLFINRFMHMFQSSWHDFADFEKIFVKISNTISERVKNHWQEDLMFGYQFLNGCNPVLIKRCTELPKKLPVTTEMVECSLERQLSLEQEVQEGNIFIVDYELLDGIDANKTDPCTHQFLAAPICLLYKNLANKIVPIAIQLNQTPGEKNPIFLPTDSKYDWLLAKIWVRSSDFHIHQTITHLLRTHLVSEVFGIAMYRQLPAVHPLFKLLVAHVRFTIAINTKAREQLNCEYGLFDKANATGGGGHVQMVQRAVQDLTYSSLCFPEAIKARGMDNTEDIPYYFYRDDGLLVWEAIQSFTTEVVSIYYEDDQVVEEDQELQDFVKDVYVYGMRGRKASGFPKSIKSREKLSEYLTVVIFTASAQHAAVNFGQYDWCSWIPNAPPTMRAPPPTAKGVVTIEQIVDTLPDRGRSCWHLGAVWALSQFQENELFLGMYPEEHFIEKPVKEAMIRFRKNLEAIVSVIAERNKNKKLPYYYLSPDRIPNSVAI

[4] = molecular target: T4, Cyclooxygenase (Homo sapiens) (UniProt P35354+P23219); assay: Inhibitory activity against cyclooxygenase (COX) in after oral administration of 5 mg/kg at 2 hr to canine; assay type: organism-based; parameters: dose 5 mg/kg; conditions: Canis lupus familiaris; target entry is the homologue from another species; at 5 mg/kg
[5] = molecular target: T4, Cyclooxygenase (Homo sapiens); assay: Inhibitory activity against cyclooxygenase (COX) in after oral administration of 5 mg/kg at 4 hr; assay type: organism-based; parameters: dose 5 mg/kg; conditions: Canis lupus familiaris; at 5 mg/kg
[6] = molecular target: T4, Cyclooxygenase (Homo sapiens); assay: Inhibitory activity against cyclooxygenase (COX) in after oral administration of 5 mg/kg at 24 hr r; assay type: organism-based; parameters: dose 5 mg/kg; conditions: Canis lupus familiaris; at 5 mg/kg
[7] = molecular target: T5, Polyunsaturated fatty acid 5-lipoxygenase (Homo sapiens) (UniProt P09917); assay: Inhibitory activity against 5-lipoxygenase (5-LO) in after oral administration of 5 mg/kg at 24 hr r; assay type: organism-based; parameters: dose 5 mg/kg; conditions: Canis lupus familiaris; at 5 mg/kg
T5 sequence (whole entry): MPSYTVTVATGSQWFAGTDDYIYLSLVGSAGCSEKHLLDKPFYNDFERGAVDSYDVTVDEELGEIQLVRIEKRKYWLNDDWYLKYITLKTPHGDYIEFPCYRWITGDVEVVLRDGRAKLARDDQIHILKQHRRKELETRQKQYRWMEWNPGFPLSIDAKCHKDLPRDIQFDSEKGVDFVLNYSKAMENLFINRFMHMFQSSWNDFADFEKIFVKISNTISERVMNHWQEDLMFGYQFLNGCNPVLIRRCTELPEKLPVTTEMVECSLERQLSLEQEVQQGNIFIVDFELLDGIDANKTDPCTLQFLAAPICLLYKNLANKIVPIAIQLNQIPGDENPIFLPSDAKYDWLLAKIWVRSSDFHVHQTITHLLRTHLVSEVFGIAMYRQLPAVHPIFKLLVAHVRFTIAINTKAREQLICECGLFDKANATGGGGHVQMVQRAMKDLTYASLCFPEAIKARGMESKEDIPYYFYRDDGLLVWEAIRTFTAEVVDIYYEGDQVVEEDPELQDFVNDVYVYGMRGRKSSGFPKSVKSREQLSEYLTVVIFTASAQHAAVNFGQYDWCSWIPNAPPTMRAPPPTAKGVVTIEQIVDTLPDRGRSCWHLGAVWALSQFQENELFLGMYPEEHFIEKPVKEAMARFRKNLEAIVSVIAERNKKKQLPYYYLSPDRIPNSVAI

[8] = molecular target: T4, Cyclooxygenase (Homo sapiens); assay: Inhibitory activity against cyclooxygenase (COX) in after oral administration of 5 mg/kg at 8 hr; assay type: organism-based; parameters: dose 5 mg/kg; conditions: Canis lupus familiaris; at 5 mg/kg
[9] = molecular target: T5, Polyunsaturated fatty acid 5-lipoxygenase (Homo sapiens); assay: Inhibitory activity against 5-lipoxygenase (5-LO) in after oral administration of 5 mg/kg at 2 hr; assay type: organism-based; parameters: dose 5 mg/kg; conditions: Canis lupus familiaris; at 5 mg/kg
[10] = molecular target: T5, Polyunsaturated fatty acid 5-lipoxygenase (Homo sapiens); assay: Inhibitory activity against 5-lipoxygenase (5-LO) in after oral administration of 5 mg/kg at 4 hr; assay type: organism-based; parameters: dose 5 mg/kg; conditions: Canis lupus familiaris; at 5 mg/kg
[11] = molecular target: T5, Polyunsaturated fatty acid 5-lipoxygenase (Homo sapiens); assay: Inhibitory activity against 5-lipoxygenase (5-LO) in after oral administration of 5 mg/kg at 8 hr; assay type: organism-based; parameters: dose 5 mg/kg; conditions: Canis lupus familiaris; at 5 mg/kg
[12] = molecular target: T3, Polyunsaturated fatty acid 5-lipoxygenase (Rattus norvegicus); assay: Inhibitory activity against 5-lipoxygenase (5-LO) using broken rat […] leukemia cells (RBL-1)at 10 uM; assay type: cell-based
[13] = molecular target: T2, Cyclooxygenase (Rattus norvegicus); assay: (§1) Inhibitory activity against Cyclooxygenase (COX) using broken rat […] leukemia cells (RBL-1); assay type: cell-based; conditions: concentration not given here
Cyclooxygenase [14] = molecular target: T6, Cyclooxygenase (Rattus norvegicus, UniProt P35355+Q63921); assay: Inhibitory activity against cyclooxygenase (COX) in intact rat […] leukemia cells (RBL-1); assay type: cell-based
T6 sequence (P35355 whole entry): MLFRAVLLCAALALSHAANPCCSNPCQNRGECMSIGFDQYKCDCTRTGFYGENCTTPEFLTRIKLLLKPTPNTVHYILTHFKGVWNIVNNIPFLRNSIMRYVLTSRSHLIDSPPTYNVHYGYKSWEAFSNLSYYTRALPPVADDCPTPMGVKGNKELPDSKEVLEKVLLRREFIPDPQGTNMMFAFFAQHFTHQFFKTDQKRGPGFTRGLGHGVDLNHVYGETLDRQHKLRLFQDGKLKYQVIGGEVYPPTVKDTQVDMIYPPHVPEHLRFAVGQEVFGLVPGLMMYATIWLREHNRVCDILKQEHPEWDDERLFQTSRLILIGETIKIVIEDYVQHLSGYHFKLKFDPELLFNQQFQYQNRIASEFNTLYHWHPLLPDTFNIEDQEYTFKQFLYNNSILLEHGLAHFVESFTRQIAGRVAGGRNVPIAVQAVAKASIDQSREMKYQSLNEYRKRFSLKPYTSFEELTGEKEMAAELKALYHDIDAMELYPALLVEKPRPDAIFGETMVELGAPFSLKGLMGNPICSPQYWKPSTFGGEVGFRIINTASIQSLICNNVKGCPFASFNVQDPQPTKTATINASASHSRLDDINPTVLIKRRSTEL
T6 sequence (Q63921 whole entry): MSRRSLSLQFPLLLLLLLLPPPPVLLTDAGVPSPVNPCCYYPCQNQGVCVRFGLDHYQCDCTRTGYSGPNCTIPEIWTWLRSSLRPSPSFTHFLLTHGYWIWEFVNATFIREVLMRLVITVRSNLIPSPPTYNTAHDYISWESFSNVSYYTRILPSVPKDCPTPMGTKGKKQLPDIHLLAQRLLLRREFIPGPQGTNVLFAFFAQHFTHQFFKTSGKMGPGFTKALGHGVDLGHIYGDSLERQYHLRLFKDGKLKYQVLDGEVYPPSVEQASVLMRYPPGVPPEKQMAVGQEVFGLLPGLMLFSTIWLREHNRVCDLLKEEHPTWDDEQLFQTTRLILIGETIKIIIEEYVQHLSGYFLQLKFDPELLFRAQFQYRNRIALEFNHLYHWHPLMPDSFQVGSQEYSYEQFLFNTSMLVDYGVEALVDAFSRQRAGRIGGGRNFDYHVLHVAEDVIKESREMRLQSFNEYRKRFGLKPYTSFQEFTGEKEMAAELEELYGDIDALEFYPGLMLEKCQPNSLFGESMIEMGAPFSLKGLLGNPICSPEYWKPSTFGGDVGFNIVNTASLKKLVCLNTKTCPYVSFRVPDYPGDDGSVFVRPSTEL

[15] = molecular target: T1, Prostaglandin G/H synthase 1 (Ovis aries); assay: Inhibitory activity against Cyclooxygenase using sheep seminal vesicle (SSV) enzyme (COX-1) at 10 uM; assay type: tissue-based
[16] = molecular target: T4, Cyclooxygenase (Homo sapiens); assay: Inhibitory activity against cyclooxygenase (COX) in after oral administration of 5 mg/kg at 8 hr to canine; assay type: organism-based; parameters: dose 5 mg/kg; conditions: Canis lupus familiaris; target entry is the homologue from another species; at 5 mg/kg
[17] = molecular target: T5, Polyunsaturated fatty acid 5-lipoxygenase (Homo sapiens); assay: Inhibitory activity against 5-lipoxygenase (5-LO) in after oral administration of 5 mg/kg at 8 hr to canine; assay type: organism-based; parameters: dose 5 mg/kg; conditions: Canis lupus familiaris; target entry is the homologue from another species; at 5 mg/kg
[18] = molecular target: T5, Polyunsaturated fatty acid 5-lipoxygenase (Homo sapiens); assay: Inhibitory activity against 5-lipoxygenase (5-LO) in after oral administration of 5 mg/kg at 24 hr r to canine; assay type: organism-based; parameters: dose 5 mg/kg; conditions: Canis lupus familiaris; target entry is the homologue from another species; at 5 mg/kg
[19] = molecular target: T4, Cyclooxygenase (Homo sapiens); assay: Inhibitory activity against cyclooxygenase (COX) in after oral administration of 5 mg/kg at 4 hr to canine; assay type: organism-based; parameters: dose 5 mg/kg; conditions: Canis lupus familiaris; target entry is the homologue from another species; at 5 mg/kg
[20] = molecular target: T5, Polyunsaturated fatty acid 5-lipoxygenase (Homo sapiens); assay: Inhibitory activity against 5-lipoxygenase (5-LO) in after oral administration of 5 mg/kg at 2 hr to canine; assay type: organism-based; parameters: dose 5 mg/kg; conditions: Canis lupus familiaris; target entry is the homologue from another species; at 5 mg/kg
Cyclooxygenase [21] = molecular target: T6, Cyclooxygenase; assay: as §1; assay type: cell-based
[22] = molecular target: T5, Polyunsaturated fatty acid 5-lipoxygenase (Homo sapiens); assay: Inhibitory activity against 5-lipoxygenase (5-LO) in after oral administration of 5 mg/kg at 4 hr to canine; assay type: organism-based; parameters: dose 5 mg/kg; conditions: Canis lupus familiaris; target entry is the homologue from another species; at 5 mg/kg
[23] = molecular target: T7, Polyunsaturated fatty acid 5-lipoxygenase (Rattus norvegicus, UniProt P12527); assay: Inhibitory activity against 5-lipoxygenase (5-LO) using broken rat […] leukemia cells (RBL-1); assay type: cell-based
T7 sequence (P12527 whole entry): T3 sequence (whole entry)

Structure (SMILES): CNC(=O)N(O)C(C)C#Cc1cc(-c2ccc(Cl)cc2)n(-c2ccc(OC)cc2)n1 (stereo not drawn)
- inhibition [1]: 5%
- inhibition [2]: 0%
- inhibition [3]: 79%

Structure (SMILES): COc1ccc(-n2nc(C#CCN(O)C(C)=O)cc2-c2ccc(C)cc2)cc1
- inhibition [12]: 100%
- inhibition [13]: 100%
- IC50 (Cyclooxygenase [14]): 30 nM
- inhibition [15]: 74%

Structure (SMILES): COc1ccc(-n2nc(C#CCN(O)C(N)=O)cc2-c2ccc(C)cc2)cc1
- inhibition [4]: 82%
- inhibition [16]: 46%
- inhibition [17]: 15%
- inhibition [6]: 11%
- inhibition [18]: 10%
- inhibition [19]: 76%
- IC50 (Cyclooxygenase [14]): 12100 nM
- inhibition [20]: 53%
- IC50 (Cyclooxygenase [21]): 310 nM
- inhibition [22]: 32%

More lines, now with the values ahead:

- inhibition [4]: 92%
- inhibition [5]: 75%
- inhibition [6]: 68%
- inhibition [7]: 12%
- inhibition [8]: 62%
- inhibition [9]: 34%
- inhibition [10]: 20%
- inhibition [11]: 31%
Structure (SMILES): COc1ccc(-n2nc(C#CC(C)N(O)C(C)=O)cc2-c2ccc(Cl)cc2)cc1 (stereo not drawn)

- IC50 [23]: 1700 nM
- IC50 (Cyclooxygenase [14]): 2850 nM
- IC50 (Cyclooxygenase [21]): 4200 nM
Structure (SMILES): COc1ccc(-n2nc(CCC(=O)N(C)O)cc2-c2ccc(Cl)cc2)cc1 [TEPOXALIN]
